Test systems include BT-549; CAKI-1; CCRF-CEM; HL-60; HOP-62; LOX IMVI; MCF7; MDA-MB-231; MDA-MB-435; MDA-N; Malme-3M; SF-268; SF-539; SK-MEL-2; SK-MEL-5; SN12C; SNB-19; SNB-75; U-251; UACC-257.
Holding throughout (test): NCI tumour cell line growth inhibition, 48 h

Structures are written as SMILES.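 Results reflect a 48-hour exposure of cells in 96-well plates to compound at five concentrations. Here, GI50 denotes the concentration required for 50% inhibition of growth.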 Activity calls are given as the source filed them. Cut-off read from the data, not from the text of the source: active = GI50 up to about 1.1 µM and inactive = higher. A value given as a limit tells only on which side of the number the result lay.

Turning to `CSc1ccc(NC(=O)C2CCCCC2C(=O)O)cc1` (centres undefined), the GI50 in the assay with BT-549, with CAKI-1, in the assay with CCRF-CEM, in the assay on HL-60, in the assay with HOP-62 and in the assay on LOX IMVI was > 100 µM (inactive) in each case. The GI50 with MCF7, in the assay with MDA-MB-231, with MDA-MB-435, with MDA-N, with Malme-3M and in the assay on SF-268 was > 100 µM (inactive) each time. For the same compound, the GI50 in the assay with SF-539, with SK-MEL-2, in the assay with SK-MEL-5, in the assay with SN12C, in the assay on SNB-19 and with SNB-75 was > 100 µM (inactive) each time. Besides, the GI50 with U-251 and in the assay on UACC-257 was > 100 µM (inactive) each time.
For `COc1cc2c(cc1O)[C@@H]1Cc3c(cc(OC)c(OC)c3Oc3cc4c(cc3OC)CCN(C)[C@@H]4Cc3ccc(O)cc3)[C@H](C2)N1C`, the GI50 was 41.2 µM (inactive) with BT-549; > 60.3 µM (inactive) in the assay on CAKI-1; 28.6 µM (inactive) with CCRF-CEM; 17.7 µM (inactive) with HL-60; > 95.5 µM (inactive) in the assay on HOP-62; 18.5 µM (inactive) with LOX IMVI. The GI50 in the assay on MCF7 was 55.5 µM (inactive); in the assay with MDA-MB-231 it was 43.3 µM (inactive); in the assay with MDA-MB-435, 20.6 µM (inactive); in the assay on MDA-N it was 19 µM (inactive); with Malme-3M, 17.1 µM (inactive); in the assay on SF-268, > 78.9 µM (inactive). Further, the GI50 is 23.5 µM (inactive) with SF-539; 22.6 µM (inactive) in the assay on SK-MEL-2; 15.8 µM (inactive) with SK-MEL-5; > 71.1 µM (inactive) with SN12C; > 100 µM (inactive) in the assay on SNB-19; 20.6 µM (inactive) with SNB-75. Moreover, the GI50 in the assay with U-251 is 46.5 µM (inactive); with UACC-257, 23.2 µM (inactive).
On to `COc1ccc(/C=N/c2nc3cc4sc(/N=C/c5ccc(OC)cc5)nc4cc3s2)cc1`, for which the GI50 in the assay with BT-549 is 27.3 µM (inactive); in the assay on CAKI-1, 27 µM (inactive); in the assay with CCRF-CEM, 4.2 µM (inactive); in the assay with HL-60 it was 18.4 µM (inactive); in the assay with HOP-62, > 49.2 µM (inactive); in the assay with LOX IMVI, 28.3 µM (inactive). Besides, the GI50 is 11.6 µM (inactive) in the assay on MCF7; 98.6 µM (inactive) with MDA-MB-231; 29.7 µM (inactive) in the assay with MDA-MB-435; 34.2 µM (inactive) in the assay on MDA-N; > 54 µM (inactive) in the assay with Malme-3M; 56.8 µM (inactive) with SF-268. The GI50 was > 100 µM (inactive) in the assay with SF-539; > 100 µM (inactive) in the assay with SK-MEL-2; 13.6 µM (inactive) in the assay on SK-MEL-5; 32.7 µM (inactive) with SN12C; > 100 µM (inactive) with SNB-19; > 100 µM (inactive) in the assay on SNB-75. Besides, the GI50 was 54.3 µM (inactive) in the assay on U-251 and 70.6 µM (inactive) in the assay on UACC-257.
As to `COC(=O)C1=C(O)C(C(=O)OC)[C@]2(O)[C@H](C(=O)OC)[C@H]1C[C@@H](c1ccc(Cl)cc1)[C@H]2C(=O)OC` (some centres undefined), the GI50 was 6.12 µM (inactive) with BT-549; 7.73 µM (inactive) in the assay on CAKI-1; 2.3 µM (inactive) with CCRF-CEM; 1.75 µM (inactive) with HL-60; 7.67 µM (inactive) in the assay on HOP-62; 10.7 µM (inactive) with LOX IMVI. The GI50 is 4.07 µM (inactive) with MCF7; 16.5 µM (inactive) in the assay with MDA-MB-231; 3.67 µM (inactive) with MDA-MB-435; 3.78 µM (inactive) with MDA-N; 6.56 µM (inactive) in the assay with Malme-3M; 6.79 µM (inactive) with SF-268. Also, the GI50 in the assay with SF-539 is 4.22 µM (inactive); in the assay with SK-MEL-2 it was 1.79 µM (inactive); with SK-MEL-5, 6.41 µM (inactive); with SN12C, 5.16 µM (inactive); in the assay on SNB-19 it was 5.5 µM (inactive); with SNB-75 it was 13.6 µM (inactive). The results for the GI50 in the assay on U-251 and in the assay with UACC-257 were 6.05 µM (inactive) and 7.6 µM (inactive), respectively.
In the case of `COC(=O)c1ccccc1C1CN=NC12Cc1cc(C)ccc1C2=O` (centres undefined), the GI50 in the assay with BT-549 was > 100 µM (inactive); in the assay on CAKI-1 it was 84.1 µM (inactive); in the assay with CCRF-CEM it was > 100 µM (inactive); in the assay with HL-60 it was 92.7 µM (inactive); with HOP-62, > 100 µM (inactive); in the assay on LOX IMVI it was 36.4 µM (inactive). Besides, the GI50 in the assay on MCF7 was 3.58 µM (inactive); in the assay with MDA-MB-231, 21.5 µM (inactive); with MDA-MB-435, 62.4 µM (inactive); in the assay on MDA-N, 72.9 µM (inactive); with Malme-3M, > 100 µM (inactive); with SF-268 it was > 100 µM (inactive). Further, the GI50 is > 100 µM (inactive) with SF-539; > 100 µM (inactive) with SK-MEL-2; > 100 µM (inactive) in the assay on SK-MEL-5; > 100 µM (inactive) in the assay on SN12C; > 100 µM (inactive) in the assay on SNB-19; 71 µM (inactive) in the assay on SNB-75. Besides, the GI50 in the assay on U-251 and with UACC-257 was > 100 µM (inactive) throughout.
Consider `CN1C(=O)N(C)C(O)C(Cl)(Br)C1=O` (centres undefined), for which the GI50 in the assay with BT-549, in the assay with CAKI-1, with CCRF-CEM, in the assay on HL-60, in the assay with LOX IMVI and in the assay with MCF7 was > 100 µM (inactive) each time. Also, the GI50 in the assay with MDA-MB-231, in the assay on MDA-MB-435, with MDA-N, in the assay on Malme-3M, in the assay with SF-268 and in the assay with SF-539 was > 100 µM (inactive) throughout. Further, the GI50 with SK-MEL-2, in the assay with SK-MEL-5, in the assay on SN12C, in the assay with SNB-19, in the assay with SNB-75 and with U-251 was > 100 µM (inactive) throughout. For the same compound, the GI50 in the assay on UACC-257 was > 100 µM (inactive).
As for `O=C1CCCC2=C1CC1=C(CCCC1=O)N2c1ccc(-c2ccccc2)cc1`, the GI50 is > 40 µM (inactive) in the assay with BT-549; > 100 µM (inactive) in the assay with CAKI-1; > 100 µM (inactive) in the assay with CCRF-CEM; > 29.6 µM (inactive) in the assay with HL-60; > 100 µM (inactive) with HOP-62; > 100 µM (inactive) in the assay with LOX IMVI. Besides, the GI50 is > 100 µM (inactive) in the assay on MCF7; > 100 µM (inactive) with MDA-MB-231; > 100 µM (inactive) in the assay with MDA-MB-435; > 100 µM (inactive) with MDA-N; > 100 µM (inactive) in the assay with Malme-3M; > 63.5 µM (inactive) in the assay with SF-268. In addition, the GI50 was > 72.6 µM (inactive) in the assay with SF-539; > 100 µM (inactive) in the assay on SK-MEL-2; > 100 µM (inactive) in the assay on SK-MEL-5; > 100 µM (inactive) with SN12C; > 63.2 µM (inactive) with SNB-19; > 47.4 µM (inactive) in the assay on SNB-75. For the same compound, the GI50 in the assay on U-251 was > 75 µM (inactive); in the assay with UACC-257 it was > 100 µM (inactive).
With `C=CCNC1=C2C[C@@H](C)C[C@@H](OC)C(OC(=O)CCCN(C)C)[C@H](C)/C=C(\C)[C@@H](OC(N)=O)[C@H](OC)/C=C\C=C(/C)C(=O)NC(=CC1=O)C2=O` (some centres undefined), the GI50 in the assay on BT-549 is 13.4 µM (inactive); in the assay with CAKI-1, 12.4 µM (inactive); in the assay on CCRF-CEM, 8.95 µM (inactive); with HL-60, 5.51 µM (inactive); with HOP-62, 9.95 µM (inactive); in the assay on LOX IMVI, 10.1 µM (inactive). The GI50 in the assay with MCF7 is 2.02 µM (inactive); with MDA-MB-231, 5.45 µM (inactive); with MDA-MB-435, 10.6 µM (inactive); in the assay on MDA-N, 7.26 µM (inactive); with Malme-3M, 4.16 µM (inactive); in the assay with SF-268 it was 12.6 µM (inactive). Further, the GI50 was 6.73 µM (inactive) in the assay with SF-539; 12.6 µM (inactive) in the assay on SK-MEL-2; 2.51 µM (inactive) in the assay on SK-MEL-5; 2.42 µM (inactive) in the assay with SN12C; 13.8 µM (inactive) in the assay on SNB-19; 10.9 µM (inactive) in the assay with SNB-75. Moreover, the GI50 in the assay on U-251 is 10.6 µM (inactive); with UACC-257 it was 12.9 µM (inactive).
Consider `CN(C)CC1CCC/C(=C\c2ccc(N(C)C)cc2)C1=O` (centres undefined), for which the GI50 in the assay with BT-549 was 16.2 µM (inactive); in the assay on CAKI-1, 1.8 µM (inactive); in the assay on CCRF-CEM, > 100 µM (inactive); in the assay with HL-60 it was > 100 µM (inactive); in the assay with HOP-62 it was 18.8 µM (inactive); in the assay with LOX IMVI, 1.67 µM (inactive). Besides, the GI50 is 1.02 µM (active) with MCF7; 4.78 µM (inactive) in the assay with MDA-MB-231; 5.4 µM (inactive) in the assay with MDA-MB-435; 7.28 µM (inactive) with MDA-N; 12.1 µM (inactive) with Malme-3M; 1.78 µM (inactive) in the assay with SF-268. In addition, the GI50 in the assay on SF-539 was 15.3 µM (inactive); in the assay with SK-MEL-2, 10.2 µM (inactive); in the assay with SK-MEL-5, 17.6 µM (inactive); in the assay with SN12C, 16.1 µM (inactive); in the assay with SNB-19, 17.7 µM (inactive); in the assay with SNB-75 it was 17 µM (inactive). Moreover, the GI50 in the assay on U-251 was 17 µM (inactive); in the assay on UACC-257, 13.5 µM (inactive).
Consider `CC(Cl)CN1c2ccccc2Sc2ccc(Cl)cc21` (centres undefined), for which the GI50 in the assay with BT-549, in the assay with CAKI-1, in the assay with CCRF-CEM, in the assay with HL-60, in the assay with HOP-62 and with LOX IMVI was > 10 µM (inactive) in each case. In addition, the GI50 in the assay with MCF7, in the assay on MDA-MB-231, in the assay with MDA-MB-435, in the assay on MDA-N, in the assay on Malme-3M and in the assay with SF-268 was > 10 µM (inactive) in each case. Further, the GI50 with SF-539, in the assay on SK-MEL-2, in the assay with SK-MEL-5, with SN12C, in the assay with SNB-19 and with SNB-75 was > 10 µM (inactive) throughout. The GI50 in the assay on U-251 and with UACC-257 was > 10 µM (inactive) in each case.

The record behind these values is ChEMBL document CHEMBL1201862, “PubChem BioAssay data set” (2004).
